Measurements from patent US12496288B2, “Vaginal tablet formulation” (Gedea Biotech AB, priority 2019, dated 2025).

Assays:
[1] = tested on: several strains of bacteria; conditions: WO 2017/174731, WO 2019/068862; cited from earlier work
[2] = IPCS 1999; 21CFR184.1318; cited from earlier work
[3] = tested on: different Candida species; conditions: WO 2017/174731, WO 2019/068862; cited from earlier work
[4] = tested on: several strains of bacteria; test: Biofilm of bacteria; assay type: cell-based; conditions: found by the present inventors
[5] = oral doses between 3 g and 50 g; cited from earlier work
[6] = tested on: different Candida species; test: Biofilm of Candida species; assay type: cell-based; conditions: found by the present inventors
Candida albicans = conditions: preclinical studies; WO 2017/174731; cited from earlier work

O=C(O)[C@H](O)[C@@H](O)[C@H](O)[C@H](O)CO [gluconic acid]
presence of biofilm [1]: reduces the presence of biofilm | carcinogenicity, teratogenicity, or genotoxicity [2]: no evidence | presence / formation of biofilm [3]: reduces the presence of biofilm

O=C1O[C@H](CO)[C@@H](O)[C@H](O)[C@H]1O [GDL, glucono-δ-lactone]
formation of biofilm [4]: has an effect on the formation of biofilm | presence / formation of biofilm [3]: significantly reduced | signs of toxicity [5]: no signs of toxicity | formation of biofilm [6]: has an effect on the formation of biofilm | Candida albicans present in the hyphal, i.e. the pathogenic form (Candida albicans): significant reduction
